System: rodent lifetime carcinogenesis bioassay, tumor incidence TD50
Test: carcinogenic potency in animals, long-term in vivo studies, CPDB compilation (AID 1745844)

Q: Which results are given for COc1ccc(C(=O)Nc2c(Cl)cncc2Cl)cc1OC1CCCC1?
A: TD50 (rat, strain IcoIbm:OFA (Sprague-Dawley derived), females, inhaled, site: nasal cavity, olfactory epithelium, lesion: carcinoma, dosed 102 weeks, study length 102 weeks): 24.6 mg/kg/day; TD50 (rat, strain IcoIbm:OFA (Sprague-Dawley derived), females, inhaled, site: nasal cavity, olfactory epithelium, lesion: malignant tumor, dosed 102 weeks, study length 102 weeks): 1.22 mg/kg/day; TD50 (rat, strain IcoIbm:OFA (Sprague-Dawley derived), females, inhaled, site: nasal cavity, olfactory epithelium, lesion: neuroblastoma, in situ, dosed 102 weeks, study length 102 weeks): 12.2 mg/kg/day; TD50 (rat, strain IcoIbm:OFA (Sprague-Dawley derived), females, inhaled, site: nasal cavity, olfactory epithelium, lesion: neuroblastoma, dosed 102 weeks, study length 102 weeks): 1.68 mg/kg/day; TD50 (rat, strain IcoIbm:OFA (Sprague-Dawley derived), females, inhaled, site: nasal cavity, olfactory epithelium, lesion: several types, types named in the paper, dosed 102 weeks, study length 102 weeks): 1.18 mg/kg/day; TD50 (rat, strain IcoIbm:OFA (Sprague-Dawley derived), females, inhaled, site: nasal cavity, olfactory region, Bowman's gland, lesion: adenocarcinoma, dosed 102 weeks, study length 102 weeks): 24.6 mg/kg/day; TD50 (rat, strain IcoIbm:OFA (Sprague-Dawley derived), females, inhaled, site: nasal cavity, olfactory region, Bowman's gland, lesion: adenoma, dosed 102 weeks, study length 102 weeks): 24.7 mg/kg/day; TD50 (rat, strain IcoIbm:OFA (Sprague-Dawley derived), males, inhaled, site: nasal cavity, olfactory epithelium, lesion: carcinoma, dosed 104 weeks, study length 104 weeks): 51.5 mg/kg/day; TD50 (rat, strain IcoIbm:OFA (Sprague-Dawley derived), males, inhaled, site: nasal cavity, olfactory epithelium, lesion: malignant tumor, dosed 104 weeks, study length 104 weeks): 2.48 mg/kg/day; TD50 (rat, strain IcoIbm:OFA (Sprague-Dawley derived), males, inhaled, site: nasal cavity, olfactory epithelium, lesion: neuroblastoma, in situ, dosed 104 weeks, study length 104 weeks): 17 mg/kg/day; TD50 (rat, strain IcoIbm:OFA (Sprague-Dawley derived), males, inhaled, site: nasal cavity, olfactory epithelium, lesion: neuroblastoma, dosed 104 weeks, study length 104 weeks): 3.75 mg/kg/day; TD50 (rat, strain IcoIbm:OFA (Sprague-Dawley derived), males, inhaled, site: nasal cavity, olfactory epithelium, lesion: several types, types named in the paper, dosed 104 weeks, study length 104 weeks): 2.22 mg/kg/day; TD50 (rat, strain IcoIbm:OFA (Sprague-Dawley derived), males, inhaled, site: nasal cavity, olfactory region, Bowman's gland, lesion: adenocarcinoma, dosed 104 weeks, study length 104 weeks): 25.6 mg/kg/day; TD50 (rat, strain IcoIbm:OFA (Sprague-Dawley derived), males, inhaled, site: nasal cavity, olfactory region, Bowman's gland, lesion: adenoma, dosed 104 weeks, study length 104 weeks): 12.7 mg/kg/day

Q: O=C1C=C(N2CC2)C(=O)C(N2CC2)=C1N1CC1 was tested. Which TD50 (rat, strain BR 46, males, i.v., site: any site (literature study), lesion: benign tumor, dosed 52 weeks, study length 104 weeks) did it give?
A: Its TD50 is 0.032 mg/kg/day.

Q: What about the TD50 (rat, strain BR 46, males, i.v., site: any site (literature study), lesion: malignant tumor, dosed 52 weeks, study length 104 weeks) of the same compound?
A: Its TD50 is 0.00677 mg/kg/day.

Q: And the TD50 (rat, strain BR 46, males, i.v., site: any site (literature study), lesion: several types, types named in the paper, dosed 52 weeks, study length 104 weeks)?
A: The TD50 was 0.00504 mg/kg/day.

Q: What about the TD50 (rat, strain BR 46, males, i.v., site: liver, lesion: liver-cell carcinoma, dosed 52 weeks, study length 104 weeks) of the same compound?
A: The TD50 was 0.0653 mg/kg/day.

Q: How did the TD50 (mouse, strain B6C3F1, females, by gavage, site: any site (literature study), lesion: several types, types named in the paper, dosed 102 weeks, study length 105 weeks) turn out when ClC(Cl)Br was run?
A: The TD50 was 62.9 mg/kg/day.

Q: And the TD50 (mouse, strain B6C3F1, females, by gavage, site: liver, lesion: hepatocellular adenoma + hepatocellular carcinoma + neoplastic nodule, dosed 102 weeks, study length 105 weeks)?
A: The TD50 was 28.9 mg/kg/day.

Q: And the TD50 (mouse, strain B6C3F1, females, by gavage, site: liver, lesion: hepatocellular adenoma + hepatocellular carcinoma, dosed 102 weeks, study length 105 weeks)?
A: Its TD50 is 28.9 mg/kg/day.

Q: And the TD50 (mouse, strain B6C3F1, females, by gavage, site: liver, lesion: hepatocellular adenoma, dosed 102 weeks, study length 105 weeks)?
A: The TD50 was 36 mg/kg/day.

Q: And the TD50 (mouse, strain B6C3F1, females, by gavage, site: liver, lesion: hepatocellular carcinoma, dosed 102 weeks, study length 105 weeks)?
A: Its TD50 is 144 mg/kg/day.

Q: And the TD50 (mouse, strain B6C3F1, females, by gavage, site: lung, lesion: alveolar/bronchiolar adenoma + alveolar/bronchiolar carcinoma, dosed 102 weeks, study length 105 weeks)?
A: The TD50 was 644 mg/kg/day.

Q: And the TD50 (mouse, strain B6C3F1, females, by gavage, site: multiple organs + spleen, lesion: malignant lymphoma, histiocytic type, dosed 102 weeks, study length 105 weeks)?
A: Its TD50 is 132 mg/kg/day.

Q: And the TD50 (mouse, strain B6C3F1, males, by gavage, site: kidney, lesion: tubular-cell adenocarcinoma, dosed 102 weeks, study length 104 weeks)?
A: Its TD50 is 336 mg/kg/day.

Q: What about the TD50 (mouse, strain B6C3F1, males, by gavage, site: kidney, lesion: tubular-cell adenoma + tubular-cell adenocarcinoma, dosed 102 weeks, study length 104 weeks) of the same compound?
A: The TD50 was 137 mg/kg/day.

Q: What about the TD50 (mouse, strain B6C3F1, males, by gavage, site: kidney, lesion: tubular-cell adenoma, dosed 102 weeks, study length 104 weeks) of the same compound?
A: The TD50 was 215 mg/kg/day.

Q: And the TD50 (mouse, strain B6C3F1, males, by gavage, site: multiple organs, lesion: malignant lymphoma, lymphocytic type, dosed 102 weeks, study length 104 weeks)?
A: The TD50 was 74.2 mg/kg/day.

Q: What about the TD50 (rat, strain Fischer 344, females, by gavage, site: colon + kidney, lesion: adenocarcinoma, NOS + adenomatous polyp, NOS + tubular-cell adenoma + tubular-cell adenocarcinoma, dosed 102 weeks, study length 104 weeks) of the same compound?
A: The TD50 was 84.8 mg/kg/day.

Q: And the TD50 (rat, strain Fischer 344, females, by gavage, site: colon, lesion: adenocarcinoma, NOS + adenomatous polyp, NOS, dosed 102 weeks, study length 104 weeks)?
A: Its TD50 is 200 mg/kg/day.

Q: What about the TD50 (rat, strain Fischer 344, females, by gavage, site: colon, lesion: adenocarcinoma, NOS, dosed 102 weeks, study length 104 weeks) of the same compound?
A: Its TD50 is 411 mg/kg/day.

Q: What about the TD50 (rat, strain Fischer 344, females, by gavage, site: colon, lesion: adenomatous polyp, NOS, dosed 102 weeks, study length 104 weeks) of the same compound?
A: Its TD50 is 364 mg/kg/day.

Q: And the TD50 (rat, strain Fischer 344, females, by gavage, site: kidney, lesion: tubular-cell adenocarcinoma, dosed 102 weeks, study length 104 weeks)?
A: The TD50 was 272 mg/kg/day.

Q: And the TD50 (rat, strain Fischer 344, females, by gavage, site: kidney, lesion: tubular-cell adenoma + tubular-cell adenocarcinoma, dosed 102 weeks, study length 104 weeks)?
A: The TD50 was 143 mg/kg/day.

Q: And the TD50 (rat, strain Fischer 344, females, by gavage, site: kidney, lesion: tubular-cell adenoma, dosed 102 weeks, study length 104 weeks)?
A: The TD50 was 351 mg/kg/day.

Q: And the TD50 (rat, strain Fischer 344, males, by gavage, site: any site (literature study), lesion: several types, types named in the paper, dosed 102 weeks, study length 104 weeks)?
A: Its TD50 is 267 mg/kg/day.

Q: What about the TD50 (rat, strain Fischer 344, males, by gavage, site: colon + kidney + rectum, lesion: adenocarcinoma, NOS + adenomatous polyp, NOS + tubular-cell adenoma + tubular-cell adenocarcinoma, dosed 102 weeks, study length 104 weeks) of the same compound?
A: The TD50 was 30.3 mg/kg/day.

Q: And the TD50 (rat, strain Fischer 344, males, by gavage, site: colon + rectum, lesion: adenocarcinoma, NOS + adenomatous polyp, NOS, dosed 102 weeks, study length 104 weeks)?
A: The TD50 was 30.7 mg/kg/day.

Q: What about the TD50 (rat, strain Fischer 344, males, by gavage, site: colon + rectum, lesion: adenocarcinoma, NOS, dosed 102 weeks, study length 104 weeks) of the same compound?
A: The TD50 was 35.6 mg/kg/day.

Q: What about the TD50 (rat, strain Fischer 344, males, by gavage, site: colon + rectum, lesion: adenomatous polyp, NOS, dosed 102 weeks, study length 104 weeks) of the same compound?
A: The TD50 was 55.6 mg/kg/day.

Q: And the TD50 (rat, strain Fischer 344, males, by gavage, site: kidney, lesion: tubular-cell adenocarcinoma, dosed 102 weeks, study length 104 weeks)?
A: Its TD50 is 213 mg/kg/day.

Q: And the TD50 (rat, strain Fischer 344, males, by gavage, site: kidney, lesion: tubular-cell adenoma + tubular-cell adenocarcinoma, dosed 102 weeks, study length 104 weeks)?
A: The TD50 was 152 mg/kg/day.

Q: What about the TD50 (rat, strain Fischer 344, males, by gavage, site: kidney, lesion: tubular-cell adenoma, dosed 102 weeks, study length 104 weeks) of the same compound?
A: Its TD50 is 583 mg/kg/day.

Q: What about the TD50 (rat, strain Fischer 344, males, by gavage, site: liver, lesion: hepatocellular adenoma + hepatocellular carcinoma + neoplastic nodule, dosed 102 weeks, study length 104 weeks) of the same compound?
A: Its TD50 is 747 mg/kg/day.

Q: And the TD50 (rat, strain Fischer 344, males, by gavage, site: lung, lesion: alveolar/bronchiolar adenoma + alveolar/bronchiolar carcinoma, dosed 102 weeks, study length 104 weeks)?
A: The TD50 was 366 mg/kg/day.

Q: What about the TD50 (rat, strain Fischer 344, males, by gavage, site: lung, lesion: alveolar/bronchiolar adenoma, dosed 102 weeks, study length 104 weeks) of the same compound?
A: Its TD50 is 447 mg/kg/day.

Q: What about the TD50 (rat, strain Fischer 344, males, by gavage, site: tunica vaginalis, lesion: mesothelioma, NOS, dosed 102 weeks, study length 104 weeks) of the same compound?
A: The TD50 was 350 mg/kg/day.

Q: And the TD50 (rat, strain Wistar, females, in drinking water, site: liver, lesion: neoplastic nodule, dosed 187 weeks, study length 187 weeks)?
A: Its TD50 is 544 mg/kg/day.

Q: What about the TD50 (rat, strain Wistar, males, in drinking water, site: pituitary gland, lesion: one or several types, types not named, dosed 182 weeks, study length 182 weeks) of the same compound?
A: The TD50 was 911 mg/kg/day.

From PubChem BioAssay AID1745844 (Carcinogenic Potency Database (CPDB), 2022)
